Results taken from paper PMC8760490, “Discovery of novel furanylbenzamide inhibitors that target oncogenic tyrosine phosphatase SHP2 in leukemia cells” (The Journal of Biological Chemistry, 2021).

Legend:
[1] = test system: mutant SHP2 (E76K) in live cells; design: method as in PMID 31953320, PMID 32744526; settings: cellular thermal shift assay; cited from earlier work
[2] = test system: phospho-ERK1/2 (p-ERK1/2) in MOLM-13 AML cells; assay: p-ERK1/2 immunoblot, MOLM-13; format: cell-based; settings: 3 h; SBI-4668 3, 10, 30 μM; RMC-4550 1 μM
Description: (§1) Because SHP2 activity is critical for ERK activation, we used phospho-ERK1/2 (p-ERK1/2) as a more direct readout of SHP2 inhibitor efficacy. […] This p-ERK rebound in MOLM-13 cells treated with RMC-4550 is reminiscent of previously reported data from human hepatoma Hep3B cells treated with SHP099 ([34]). We also tested the effects of SBI-4668 or RMC-4550 on two patient-derived AML samples (Fig. 4F).
Cells cultured in RPMI medium were treated as indicated in the legends to the figures. Total protein extracts were prepared in modified radioimmunoprecipitation assay lysis buffer (25 mM Tris–HCl, pH 7.4, 10% glycerol, 0.2% Triton X-100, 150 mM NaCl, 2 mM Na3VO4, and 1 mM EDTA) containing a protease inhibitor cocktail (Roche Applied Science). Equal amounts of protein were separated on 4 to 12% (p-ERK1/2 blots) or 4 to 20% (SHP2 blots) Bis–Tris gels by SDS-PAGE and transferred to nitrocellulose (p-ERK1/2 blots) or 0.2 μm polyvinylidene fluoride (SHP2 blots) membranes. Membranes were blocked in 5% dry milk (Bio-Rad) in Tris-buffered saline–Tween-20 (TBS–T) (0.1% v/v) for 1 h at RT. Protein-bound membranes were incubated with indicated primary antibody overnight at 4 °C. After washing three times with TBS-T, membranes were incubated for 1 h with horseradish peroxidase–conjugated secondary antibody and then visualized by an ECL Prime detection system (GE Healthcare). Immunoblotting experiments were carried out at least three times, and representative images are shown. Densitometric quantitation of immunoblots was performed using Image Studio Lite Software (LI-COR). Changes of phosphorylated ERK1/2 to total ERK1/2 ratios are expressed as percentage of the vehicle-treated controls. The following antibodies were used: Phospho-Erk1/2 Ab (catalog no.: 9101S; Cell Signaling); total Erk1/2 Ab (catalog no.: 9102S; Cell Signaling); SHP2 Ab (catalog no.: A301-544A; lot no.: 1; Bethyl); and GAPDH (14C10) mAb (catalog no.: 2118S; lot no.: 14; Cell Signaling).

[3] = test system: patient-derived AML cells; assay: Viability of patient-derived AML cells; format: cell-based, human; settings: 10 μM; 2, 4 or 6 days in culture
Description: as §1
Patient-derived AML cells were obtained from Carol Burian and Dr James Mason (Scripps MD Anderson Center) under approved Institutional Review Board protocol 13-6180. […] Final peripheral blood mononuclear cells were resuspended in Bambanker serum-free freezing medium (Wako Pure Chemical Industries, Ltd) and stored frozen before cell viability was assessed as described later.
(§2) Viability of AML and esophageal carcinoma cells was assessed using the ATP-depletion assay CellTiter-Glo (Promega). Cells were harvested at 1 × 10^6/ml to 2 × 10^6 cells/ml with cell numbers determined by trypan blue using the Countess Cell counter (Thermo Scientific) and resuspended in culture media. […] Luminescence was read on a Tecan Spark Multimode Microplate Reader, and data were analyzed using GraphPad Prism software.

[4] = test system: U-937 AML cells (G60R oncogenic mutation in SHP2); assay: Cell viability (CellTiter-Glo), U-937; format: cell-based; settings: 3 days, 0.123 to 30 μM
Description: Oncogenic gain-of-function mutations in SHP2 drive leukemogenesis in a significant number of leukemia patients. However, because of their unique mechanism of action, the existing SHP2 allosteric inhibitors lack activity against the most common SHP2 oncogenic variants. Thus, we tested whether our inhibitors could inhibit the growth of leukemia cells expressing oncogenic SHP2 variants. […] Thus, we tested both SBI-4668 and RMC-4550 on U-937 AML cells, which harbor a G60R oncogenic mutation in SHP2. We treated cells with either SBI-4668 or RMC-4550 at various concentrations, ranging from 0.123 to 30 μM (Fig. 5A). […] We also assessed the effects of SBI-4668 and RMC-4550 on ERK1/2 activation in the SHP2 mutant U-937 cell line. […]
as §2

[5] = test system: phospho-ERK1/2 (p-ERK1/2) in U-937 AML cells; assay: p-ERK1/2 immunoblot, U-937; format: cell-based; settings: SBI-4668 1, 3, 10, 30 μM, RMC-4550 1 μM
Description: Oncogenic gain-of-function mutations in SHP2 drive leukemogenesis in a significant number of leukemia patients. However, because of their unique mechanism of action, the existing SHP2 allosteric inhibitors lack activity against the most common SHP2 oncogenic variants. Thus, we tested whether our inhibitors could inhibit the growth of leukemia cells expressing oncogenic SHP2 variants. […] Thus, we tested both SBI-4668 and RMC-4550 on U-937 AML cells, which harbor a G60R oncogenic mutation in SHP2. We treated cells with either SBI-4668 or RMC-4550 at various concentrations, ranging from 0.123 to 30 μM (Fig. 5A). […] We also assessed the effects of SBI-4668 and RMC-4550 on ERK1/2 activation in the SHP2 mutant U-937 cell line. Similar to the immunoblot experiments described for MOLM-13 cells above, U-937 AML cells were treated with either vehicle control (DMSO), SBI-4668 (1, 3, 10, or 30 μM), or with RMC-4550 (1 μM) for 24 h and processed for p-ERK1/2 immunoblot analysis (Fig. 5B).
Cells cultured in RPMI medium were treated as indicated in the legends to the figures. […] Densitometric quantitation of immunoblots was performed using Image Studio Lite Software (LI-COR). Changes of phosphorylated ERK1/2 to total ERK1/2 ratios are expressed as percentage of the vehicle-treated controls. […]

BT-549 TNBC cells [6] = assay: 11-day colony formation assay, BT-549; format: cell-based; settings: 5, 10 or 20 μM, 11 days
Description: (§3) Inhibition of SHP2 has been reported to inhibit the growth of cancer cells including Kasumi-1 acute myeloid leukemia (AML) and KYSE-520 esophageal cancer cells ([30]). […] Thus, we treated two TNBC cell lines, BT-549 and MDA-MB-468, with SBI-4668 or the SHP2 allosteric inhibitor SHP099 at various concentrations and determined cell viability after 72 h, compared with the vehicle control (Fig. 4C). […] Next, we performed an 11-day colony formation assay with TNBC cells treated with SBI-4668 or SHP099 at 5, 10, or 20 μM (Fig. 4D).
(§4) MDA-MB-468 and […] triple-negative breast cancer cells were maintained in Dulbecco's modified Eagle's medium + 10% FBS supplemented with 1× penicillin–streptomycin/L-glutamine (Omega Scientific). About 1500 cells (in 300 μl) were seeded per well of a standard 24-well tissue culture plate (Falcon) and allowed to adhere for 24 h, before the addition of compound(s) as described. After a further 96 h, media were replaced with fresh media containing the same test compounds and concentrations. After 11 days, media were removed, and cells stained with 0.5% crystal violet (in 20% methanol; Sigma) for 20 min with agitation at 80 rpm. Stain was removed, and plates with stained cells were washed by being submerged in excess deionized water and allowed to air dry overnight before imaging.

MOLM-13 AML cells = assay: Cell viability (CellTiter-Glo), MOLM-13; format: cell-based; settings: 72 h, 30 μM to 58 nM, regular MOLM-13 expressing WT SHP2 (Fig. 4G); read-out: MOLM-13 cell viability IC50 (parallel to SHP2 KO)
Description: as §3
Finally, we evaluated the selectivity of our top two compounds, SBI-2130 and SBI-4668, on MOLM-13 AML cells in which SHP2 was depleted using CRISPR–Cas9 KO. High-efficiency Cas9-editing MOLM-13 cells were generated by transducing MOLM-13 cells with a Cas9 lentiviral construct. Stable clones were tested for editing efficiency by performing tracking of indels by decomposition analysis ([45]), and these MOLM-13-Cas9 cells were transduced with a lentiviral construct containing an AAVS1 single-guide RNA (sgRNA) and an mCherry reporter for bulk sorting of cells with successful AAVS1 editing. SHP2 KO was achieved by transducing MOLM-13-Cas9-mCherry cells with a lentivirus, containing SHP2 dual sgRNAs, resulting in ∼80% reduction of SHP2 protein levels (Fig. 4G). SBI-2130, SBI-4668, and the SHP2 allosteric inhibitor, SHP099, were tested in parallel on regular MOLM-13 cells (expressing WT SHP2) and MOLM-13-Cas9-mCherry cells with SHP2 KO. Cells were treated with inhibitors at various concentrations (ranging from 30 μM to 58 nM) or vehicle control (DMSO) for 72 h, before cell viability was assessed.
as §2, with “media. About 3000 cells (in 20 μl) were seeded in a 384-well format white and clear-bottom microplate (catalog no.: 781098; Greiner) spotted with test compound or vehicle control (DMSO) using an Echo 555 Liquid Handler.” for “media.”
For SHP2 KO, dual sgRNAs targeting SHP2 were cloned in the pLentiGuide puro vector (Addgene plasmid no. 52963 from Dr Feng Zhang) using a published protocol ([50]). […] SHP2 KO was evaluated by immunoblotting. […] For SHP2 KO, MOLM-13-Cas9-mCherry cells were seeded in nontreated 6-well plates (2 × 10^6 cells/well in 2.5 ml), with cell numbers determined by trypan blue using the Countess Cell Counter (Thermo Scientific). […]

MDA-MB-468 TNBC cells [7] = assay: 11-day colony formation assay, MDA-MB-468; format: cell-based; settings: 5, 10 or 20 μM, 11 days
Description: as §3, §4

MDA-MB-468 TNBC cells [8] = assay: TNBC cell viability (CellTiter-Glo), MDA-MB-468; format: cell-based; settings: various concentrations
Description: as §3
(§5) Triple-negative breast cancer cell viability was assessed using the ATP-depletion assay CellTiter-Glo. Briefly, 2500 cells in 25 μl media (RPMI + 10% FBS + 1× penicillin–streptomycin [Omega Scientific]) were seeded per well of a 384-well tissue culture–treated plate (Greiner). About 25 nl of 1000× test compound were added using a Labcyte Echo acoustic dispenser, and the cells were incubated for 5 days before addition of 10 μl of CellTiter-Glo reagent as described by the manufacturer. Luminescence was detected on a BioTek Synergy 2 microplate reader, and the values normalized to those of vehicle (DMSO)-treated controls before being plotted using GraphPad Prism.

BT-549 TNBC cells [9] = assay: TNBC cell viability (CellTiter-Glo), BT-549; format: cell-based; settings: various concentrations
Description: as §3, §5

IC50 [4] [µM]	IC50 (MOLM-13 AML cells) [µM]	SMILES	cellular target engagement with mutant SHP2 [1]	p-ERK1/2 levels, MOLM-13, 3 h [2]	growth of two patient-derived AML samples [3]	p-ERK1/2 levels, U-937, 24 h [5]	colony formation, BT-549 (BT-549 TNBC cells [6])	colony formation, MDA-MB-468 (MDA-MB-468 TNBC cells [7])	effect on MDA-MB-468 cell viability (MDA-MB-468 TNBC cells [8])	effect on BT-549 cell viability (BT-549 TNBC cells [9])
33		Cc1nc(N2CCC3(CC2)CO[C@@H](C)[C@H]3N)c(CO)nc1-c1cccc(Cl)c1Cl [RMC-4550, reference compound]	greatly decreased cellular target engagement	highly effective in impeding ERK1/2 activation	only affected the growth of sample 2	not detectable				
	9.4	CC1(N)CCN(c2cnc(-c3cccc(Cl)c3Cl)c(N)n2)CC1 [SHP099, reference compound]					very weak effect	very weak effect	very minor effect	very minor effect
